# Data reported in patent publication US12714706B2, “Methods of treating small cell lung cancer with lurbinectedin formulations” (PHARMA MAR, S.A., priority 2019, dated 2026).
# “And” between values parts separate entries of the source, which are not always exact repeats. Equal values may be shown once. Read-outs that look alike come from different tables or passages of the source.
# How the values were obtained:
# advanced solid tumors = test: Phase 1 dose escalation of lurbinectedin plus irinotecan: MTD, RD and dose limiting toxicities; format: in vivo, human
# Experimental: A clinical study of lurbinectedin in combination with irinotecan for patients afflicted with solid tumors was carried out. […] Patients were enrolled following a standard 3+3 dose escalation design. Phase Ib/II expansion part at the recommended dose (RD) was performed to explore efficacy in indications where antitumor activity signal was observed.
# Three weeks was defined as one treatment cycle.
# Primary outcome measures were (1) maximum tolerated dose (MTD) and (2) recommended dose (RD). MTD was defined as lowest dose explored during dose escalation which one third or more of evaluable patients develop DLT in Cycle 1. RD was defined as highest dose level explored during dose escalation in which fewer than one third of evaluable patients develop DLT during Cycle 1.
# physchem [1] = test: physchem
# SCLC = test: Post-hoc exploratory analysis of response in SCLC patients who had previously received immunotherapy; format: in vivo, human; details: for Lurbinectedin treatment: OS / Lurbinectedin treatment: DoR / Lurbinectedin treatment: PFS: individual SCLC patients with prior immunotherapy
# From the text: Post-hoc exploratory analysis was done on the response in patients who had previously received immunotherapy (n=8).
# [2] = Lurbinectedin plus irinotecan trial: pharmacokinetics of lurbinectedin, irinotecan and SN-38; details: combination: lurbinectedin 1.0-2.4 mg/m2 + irinotecan 75 mg/m2; n=39; mean (SD)
# patients = details: previous analysis, dose based on body surface area; cited from earlier work
# [3] = Maximum solubility of lurbinectedin in various buffers pH 4 (impact of buffer molarity)
# Experimental: (§1) Bulk solutions of phosphate, acetate, citrate, lactate and succinate buffers were prepared to determine maximum solubility of lurbinectedin.
# [4] = Maximum solubility of lurbinectedin in different molarities of lactic acid; format: physicochemical; details: lactic acid solution, aqueous buffer
# Experimental: As such, in embodiments, a concentrated lurbinectedin solution is prepared in organic acid before addition of other excipients. In preferred embodiments, the organic acid has a pH less than 4, preferably less than 3.5, more preferably less than 3, or around 3. The maximum solubility of lurbinectedin was investigated in different molarities of the organic acid lactic acid. […] In a preferred embodiment, lurbinectedin is dissolved in an organic acid with a molarity of around 0.1M to 0.5M, preferably around 0.2M to 0.4M, more preferably around 0.3M organic acid. An exemplary molarity is 0.31M organic acid.
# physchem [5] = details: pH 4, aqueous buffer
# Experimental: as §1
# [6] = lurbinectedin D1 q3w with irinotecan 75 mg/m2 D1 & D8 q3w
# [7] = resistant disease, listed as Lurbinectedin
# [8] = Sodium acetate pH 3, 25°C/60% RH
# [9] = Sodium acetate pH 3, 14 d 25°C/60% RH
# [10] = Sodium acetate pH 4, 25°C/60% RH
# [11] = Sodium acetate pH 4, 14 d 25°C/60% RH
# [12] = Sodium acetate pH 5, 25°C/60% RH
# [13] = Sodium acetate pH 5, 14 d 25°C/60% RH
# [14] = Sodium citrate pH 3, 25°C/60% RH
# [15] = Sodium citrate pH 3, 14 d 25°C/60% RH
# [16] = Sodium citrate pH 4, 25°C/60% RH
# [17] = Sodium citrate pH 4, 14 d 25°C/60% RH
# [18] = Sodium citrate pH 5, 25°C/60% RH
# [19] = Sodium citrate pH 5, 14 d 25°C/60% RH
# [20] = Sodium lactate pH 3, 25°C/60% RH
# [21] = Sodium lactate pH 3, 14 d 25°C/60% RH
# [22] = Sodium lactate pH 4, 25°C/60% RH
# [23] = Sodium lactate pH 4, 14 d 25°C/60% RH
# [24] = Sodium lactate pH 5, 25°C/60% RH
# [25] = Sodium lactate pH 5, 14 d 25°C/60% RH
# [26] = Sodium succinate pH 3, 25°C/60% RH
# [27] = Sodium succinate pH 3, 14 d 25°C/60% RH
# [28] = Sodium succinate pH 4, 25°C/60% RH
# [29] = Sodium succinate pH 4, 14 d 25°C/60% RH
# [30] = Sodium succinate pH 5, 25°C/60% RH
# [31] = Sodium succinate pH 5, 14 d 25°C/60% RH
smiles,measurement,setting,value
"COc1ccc2[nH]c3c(c2c1)CCN[C@]31CS[C@@H]2c3c(OC(C)=O)c(C)c4c(c3[C@H](COC1=O)N1[C@@H]2[C@H]2c3c(cc(C)c(OC)c3O)C[C@@H]([C@@H]1O)N2C)OCO4 [lurbinectedin, Lurbinectedin]",DLTs/Evaluable patients,"advanced solid tumors; Dose Level 1: lurbinectedin 1.0 mg/m2 D1 + irinotecan 75 mg/m2 D1 & D8, q3w",1/6
same,DLTs/Evaluable patients,"advanced solid tumors; Dose Level 2: lurbinectedin 1.5 mg/m2 D1 + irinotecan 75 mg/m2 D1 & D8, q3w",1/4
same,DLTs/Evaluable patients,"advanced solid tumors; Dose Level 3 (without G-CSF): lurbinectedin 2.0 mg/m2 D1 + irinotecan 75 mg/m2 D1 & D8, q3w",4/11
same,DLTs/Evaluable patients,"advanced solid tumors; Dose Level 3* (with G-CSF): lurbinectedin 2.0 mg/m2 D1 + irinotecan 75 mg/m2 D1 & D8, q3w",3/12
same,DLTs/Evaluable patients,"advanced solid tumors; Dose Level 4* (with G-CSF): lurbinectedin 2.4 mg/m2 D1 + irinotecan 75 mg/m2 D1 & D8, q3w",2/3
same,MTD with G-CSF (lurbinectedin dose),advanced solid tumors; [6],2.4 mg/m2
same,MTD without G-CSF (lurbinectedin dose),advanced solid tumors; [6],2.0 mg/m2
same,RD with G-CSF (lurbinectedin dose),advanced solid tumors; [6],2.0 mg/m2
same,solubility,"physchem [1]; sodium acetate buffer, pH 3, aqueous buffer",950 µg/mL
same,solubility,"physchem [1]; sodium acetate buffer, pH 4, aqueous buffer",940 µg/mL
same,solubility,"physchem [1]; sodium acetate buffer, pH 5, aqueous buffer",30 µg/mL
same,solubility,"physchem [1]; sodium citrate buffer, pH 3, aqueous buffer",940 µg/mL
same,solubility,"physchem [1]; sodium citrate buffer, pH 4, aqueous buffer",930 µg/mL
same,solubility,"physchem [1]; sodium citrate buffer, pH 5, aqueous buffer",500 µg/mL
same,solubility,"physchem [1]; sodium lactate buffer, pH 3, aqueous buffer",940 µg/mL
same,solubility,"physchem [1]; sodium lactate buffer, pH 4, aqueous buffer",900 µg/mL
same,solubility,"physchem [1]; sodium lactate buffer, pH 5, aqueous buffer",30 µg/mL
same,solubility,"physchem [1]; sodium succinate buffer, pH 3, aqueous buffer",960 µg/mL
same,solubility,"physchem [1]; sodium succinate buffer, pH 4, aqueous buffer",970 µg/mL
same,solubility,"physchem [1]; sodium succinate buffer, pH 5, aqueous buffer",40 µg/mL
same,Lurbinectedin treatment: OS,SCLC; resistant disease,12.6 months
same,Lurbinectedin treatment: DoR,SCLC; [7],5.6 months and 5.3 months and 5.1 months
same,Lurbinectedin treatment: OS,SCLC; [7],12.0 months and 4.9 months and 14.9 months and 6.9+ months
same,Lurbinectedin treatment: PFS,SCLC; [7],6.0 months and 1.3 months and 8.3 months and 6.9 months and 6.3 months
same,Lurbinectedin treatment: DoR,SCLC; sensitive disease,6.4 months and 2.8 months
same,Lurbinectedin treatment: OS,SCLC; sensitive disease,9.3 months and 10.8 months and 2.3 months
same,Lurbinectedin treatment: PFS,SCLC; sensitive disease,7.6 months and 4.7 months and 1.3 months
same,Response to single-agent lurbinectedin in patients who had previously received immunotherapy,"SCLC; post-hoc, n=8",trend for a better response
same,HL,[2],44.2 (22.4) h
same,Incidence of febrile neutropenia,patients,lower than 10%
same,Lurbinectedin maximum solubility,"[3]; Monopotassium phosphate buffer pH 4, 0.06-01 M",320 µg/mL
same,Lurbinectedin maximum solubility,"[3]; Sodium acetate buffer pH 4, 0.06-01 M",860 µg/mL
same,Lurbinectedin maximum solubility,"[3]; Sodium lactate buffer pH 4, 0.06-01 M",920 µg/mL
same,solubility,[4]; 0.05M lactic acid,7200 µg/mL
same,solubility,[4]; 0.5M lactic acid,90400 µg/mL
same,solubility,physchem [5]; monopotassium phosphate buffer,210 µg/mL
same,solubility,physchem [5]; sodium acetate buffer,940 µg/mL
same,solubility,physchem [5]; sodium citrate buffer,930 µg/mL
same,solubility,physchem [5]; sodium lactate buffer,900 µg/mL
same,solubility,physchem [5]; sodium succinate buffer,970 µg/mL
same,Concentration t = 0 h,Sodium acetate pH 3,950 µg/mL
same,Purity t = 0 h,Sodium acetate pH 3,99.2%
same,Concentration t = 14 d,[8],880 µg/mL
same,Purity t = 14 d,[8],98.0%
same,Concentration decrease,[9],6.8%
same,Degradation,[9],1.2%
same,Concentration t = 0 h,Sodium acetate pH 4,940 µg/mL
same,Purity t = 0 h,Sodium acetate pH 4,99.2%
same,Concentration t = 14 d,[10],890 µg/mL
same,Purity t = 14 d,[10],98.0%
same,Concentration decrease,[11],5.7%
same,Degradation,[11],1.2%
same,Concentration t = 0 h,Sodium acetate pH 5,30 µg/mL
same,Purity t = 0 h,Sodium acetate pH 5,95.4%
same,Concentration t = 14 d,[12],30 µg/mL
same,Purity t = 14 d,[12],93.7%
same,Concentration decrease,[13],8.2%
same,Degradation,[13],1.7%
same,Concentration t = 0 h,Sodium citrate pH 3,940 µg/mL
same,Purity t = 0 h,Sodium citrate pH 3,99.4%
same,Concentration t = 14 d,[14],920 µg/mL
same,Purity t = 14 d,[14],97.9%
same,Concentration decrease,[15],1.2%
same,Degradation,[15],1.6%
same,Concentration t = 0 h,Sodium citrate pH 4,930 µg/mL
same,Purity t = 0 h,Sodium citrate pH 4,99.4%
same,Concentration t = 14 d,[16],880 µg/mL
same,Purity t = 14 d,[16],96.2%
same,Concentration decrease,[17],6.0%
same,Degradation,[17],3.2%
same,Concentration t = 0 h,Sodium citrate pH 5,500 µg/mL
same,Purity t = 0 h,Sodium citrate pH 5,99.3%
same,Concentration t = 14 d,[18],110 µg/mL
same,Purity t = 14 d,[18],95.0%
same,Concentration decrease,[19],78.5%
same,Degradation,[19],4.3%
same,Concentration t = 0 h,Sodium lactate pH 3,940 µg/mL
same,Purity t = 0 h,Sodium lactate pH 3,99.3%
same,Concentration t = 14 d,[20],930 µg/mL
same,Purity t = 14 d,[20],98.6%
same,Concentration decrease,[21],0.9%
same,Degradation,[21],0.7%
same,Concentration t = 0 h,Sodium lactate pH 4,900 µg/mL
same,Purity t = 0 h,Sodium lactate pH 4,99.3%
same,Concentration t = 14 d,[22],870 µg/mL
same,Purity t = 14 d,[22],97.8%
same,Concentration decrease,[23],3.0%
same,Degradation,[23],1.5%
same,Concentration t = 0 h,Sodium lactate pH 5,30 µg/mL
same,Purity t = 0 h,Sodium lactate pH 5,96.5%
same,Concentration t = 14 d,[24],30 µg/mL
same,Purity t = 14 d,[24],93.9%
same,Concentration decrease,[25],6.9%
same,Degradation,[25],2.6%
same,Concentration t = 0 h,Sodium succinate pH 3,960 µg/mL
same,Purity t = 0 h,Sodium succinate pH 3,99.3%
same,Concentration t = 14 d,[26],930 µg/mL
same,Purity t = 14 d,[26],97.7%
same,Concentration decrease,[27],3.2%
same,Degradation,[27],1.5%
same,Concentration t = 0 h,Sodium succinate pH 4,970 µg/mL
same,Purity t = 0 h,Sodium succinate pH 4,99.2%
same,Concentration t = 14 d,[28],890 µg/mL
same,Purity t = 14 d,[28],96.8%
same,Concentration decrease,[29],7.6%
same,Degradation,[29],2.4%
same,Concentration t = 0 h,Sodium succinate pH 5,40 µg/mL
same,Purity t = 0 h,Sodium succinate pH 5,95.9%
same,Concentration t = 14 d,[30],30 µg/mL
same,Purity t = 14 d,[30],94.2%
same,Concentration decrease,[31],8.1%
same,Degradation,[31],1.8%
